Data as given in ChEMBL document CHEMBL1146086, “Design, synthesis, and evaluation of near infrared fluorescent multimeric RGD peptides for targeting tumors” (J Med Chem, 2006).
Numbered stars: 1 amine (or outer) side, 2 acyl side, 3 side chain; on linkers, the order of the positions; unused ones are H or OH. Bridge positions count the residues as written; N and C are the ends. Peptide text beside a SMILES is read from it. I, II: the chains in the order shown. * marks the point of attachment. X2 = CC1(C)C(/C=C/C=C/C=C/C=C2/N(CCC(=O)[*:1])c3ccc4ccccc4c3C2(C)C)=[N+](CCC(=O)[*:2])c2ccc3ccccc3c21; X1 = CC1(C)C(/C=C/C=C/C=C/C=C2/N(CCC(=O)[*:1])c3ccc4ccccc4c3C2(C)C)=[N+](CC(=O)[*:2])c2ccc3ccccc3c21; Cypate = CC1(C)C(/C=C/C=C/C=C/C=C2/N(CCC(=O)*)c3ccc4ccccc4c3C2(C)C)=[N+](CCC(=O)O)c2ccc3ccccc3c21; X3 = CC1(C)C(/C=C/C=C/C=C/C=C2/N(CCC(=O)O)c3ccc4ccccc4c3C2(C)C)=[N+](CC(=O)*)c2ccc3ccccc3c21

Molecular target: Integrin alpha-V/beta-3 (Homo sapiens, UniProt P05106+P06756)
Sequence (P05106 27-788 limits assumed): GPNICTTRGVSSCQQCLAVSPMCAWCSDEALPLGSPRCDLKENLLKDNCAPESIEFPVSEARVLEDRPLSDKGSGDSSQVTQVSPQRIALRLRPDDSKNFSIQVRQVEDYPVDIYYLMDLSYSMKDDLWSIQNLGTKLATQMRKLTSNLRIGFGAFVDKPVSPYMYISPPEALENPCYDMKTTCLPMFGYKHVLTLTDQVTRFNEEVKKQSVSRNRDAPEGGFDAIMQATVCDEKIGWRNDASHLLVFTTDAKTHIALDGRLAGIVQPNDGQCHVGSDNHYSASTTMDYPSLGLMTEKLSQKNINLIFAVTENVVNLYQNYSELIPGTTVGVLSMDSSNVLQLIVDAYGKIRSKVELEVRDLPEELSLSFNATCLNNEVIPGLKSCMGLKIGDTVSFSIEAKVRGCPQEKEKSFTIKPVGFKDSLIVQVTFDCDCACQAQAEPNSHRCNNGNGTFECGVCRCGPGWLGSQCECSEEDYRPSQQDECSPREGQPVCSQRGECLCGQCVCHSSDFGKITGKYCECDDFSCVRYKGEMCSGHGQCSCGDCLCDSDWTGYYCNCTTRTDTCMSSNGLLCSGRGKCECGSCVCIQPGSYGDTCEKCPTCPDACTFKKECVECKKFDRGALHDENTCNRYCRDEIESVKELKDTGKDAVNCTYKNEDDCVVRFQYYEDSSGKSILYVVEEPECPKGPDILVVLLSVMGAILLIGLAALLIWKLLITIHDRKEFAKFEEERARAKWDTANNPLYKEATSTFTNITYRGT
Sequence (P06756 31-889 limits assumed): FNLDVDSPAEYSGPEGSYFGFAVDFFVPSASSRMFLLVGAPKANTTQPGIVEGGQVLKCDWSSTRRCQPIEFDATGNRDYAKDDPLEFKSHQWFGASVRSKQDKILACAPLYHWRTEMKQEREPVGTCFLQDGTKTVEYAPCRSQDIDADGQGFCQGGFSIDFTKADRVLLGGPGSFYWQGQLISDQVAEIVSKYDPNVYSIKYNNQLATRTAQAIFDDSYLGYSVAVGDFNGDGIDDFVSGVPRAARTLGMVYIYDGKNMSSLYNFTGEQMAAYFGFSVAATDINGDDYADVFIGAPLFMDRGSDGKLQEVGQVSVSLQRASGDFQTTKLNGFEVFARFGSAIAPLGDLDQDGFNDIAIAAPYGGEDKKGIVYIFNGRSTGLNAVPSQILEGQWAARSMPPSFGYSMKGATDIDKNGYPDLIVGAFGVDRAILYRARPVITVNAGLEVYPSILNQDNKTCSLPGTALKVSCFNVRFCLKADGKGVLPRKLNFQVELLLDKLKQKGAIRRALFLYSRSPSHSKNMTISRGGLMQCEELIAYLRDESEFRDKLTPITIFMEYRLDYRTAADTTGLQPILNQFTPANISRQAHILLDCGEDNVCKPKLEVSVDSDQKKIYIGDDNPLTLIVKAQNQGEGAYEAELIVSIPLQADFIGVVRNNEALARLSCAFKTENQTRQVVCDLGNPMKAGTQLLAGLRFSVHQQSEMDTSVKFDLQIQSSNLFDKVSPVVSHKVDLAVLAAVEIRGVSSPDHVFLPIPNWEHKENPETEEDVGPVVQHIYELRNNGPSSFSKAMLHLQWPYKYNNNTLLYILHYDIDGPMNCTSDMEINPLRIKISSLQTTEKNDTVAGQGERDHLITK
Sequence (P06756 891-1048 limits assumed): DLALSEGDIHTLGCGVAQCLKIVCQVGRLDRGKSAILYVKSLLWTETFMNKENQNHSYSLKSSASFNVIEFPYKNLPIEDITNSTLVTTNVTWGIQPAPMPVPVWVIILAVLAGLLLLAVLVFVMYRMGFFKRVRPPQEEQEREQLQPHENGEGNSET
Test: Displacement of [125I]echistatin from AlphaV-beta-3 integrin receptor
Assay type: protein-complex assay

| SMILES | IC50 [nM] |
| --- | --- |
| CC1(C)C(/C=C/C=C/C=C/C=C2/N(CCC(=O)N[C@@H](CCCN=C(N)N)C(=O)NCC(=O)N[C@@H](CC(=O)O)C(=O)N[C@@H](CCCN=C(N)N)C(=O)NCC(=O)N[C@@H](CC(=O)O)C(=O)N[C@@H](CCCN=C(N)N)C(=O)NCC(=O)N[C@@H](CC(=O)O)C(=O)N[C@@H](CCCN=C(N)N)C(=O)NCC(=O)N[C@@H](CC(=O)O)C(N)=O)c3ccc4ccccc4c3C2(C)C)=[N+](CCC(=O)O)c2ccc3ccccc3c21 (Cypate-RGDRGDRGDRGD-NH2) | 259 |
| CC1(C)C(/C=C/C=C/C=C/C=C2/N(CCC(=O)N[C@@H](CCCN=C(N)N)C(=O)NCC(=O)N[C@@H](CC(=O)O)C(=O)N[C@@H](CCCN=C(N)N)C(=O)NCC(=O)N[C@@H](CC(=O)O)C(=O)N[C@@H](CCCN=C(N)N)C(=O)NCC(=O)N[C@@H](CC(=O)O)C(N)=O)c3ccc4ccccc4c3C2(C)C)=[N+](CC(=O)N[C@@H](CCCN=C(N)N)C(=O)NCC(=O)N[C@@H](CC(=O)O)C(=O)N[C@@H](CCCN=C(N)N)C(=O)NCC(=O)N[C@@H](CC(=O)O)C(=O)N[C@@H](CCCN=C(N)N)C(=O)NCC(=O)N[C@@H](CC(=O)O)C(N)=O)c2ccc3ccccc3c21 (I: RGDRGDRGD-NH2 / II: RGDRGDRGD-NH2; linker I:N-II:N via X1) | 132 |
| CC1(C)C(/C=C/C=C/C=C/C=C2/N(CCC(=O)N[C@@H](CCCN=C(N)N)C(=O)NCC(=O)N[C@@H](CC(=O)O)C(=O)N[C@@H](CCCN=C(N)N)C(=O)NCC(=O)N[C@@H](CC(=O)O)C(=O)N[C@@H](CCCN=C(N)N)C(=O)NCC(=O)N[C@@H](CC(=O)O)C(=O)N[C@@H](CCCN=C(N)N)C(=O)NCC(=O)N[C@@H](CC(=O)O)C(N)=O)c3ccc4ccccc4c3C2(C)C)=[N+](CCC(=O)N[C@@H](CCCN=C(N)N)C(=O)NCC(=O)N[C@@H](CC(=O)O)C(=O)N[C@@H](CCCN=C(N)N)C(=O)NCC(=O)N[C@@H](CC(=O)O)C(=O)N[C@@H](CCCN=C(N)N)C(=O)NCC(=O)N[C@@H](CC(=O)O)C(=O)N[C@@H](CCCN=C(N)N)C(=O)NCC(=O)N[C@@H](CC(=O)O)C(N)=O)c2ccc3ccccc3c21 (I: RGDRGDRGDRGD-NH2 / II: RGDRGDRGDRGD-NH2; linker I:N-II:N via X2) | 79.6 |
| CC1(C)C(/C=C/C=C/C=C/C=C2/N(CCC(=O)N[C@@H](CCCN=C(N)N)C(=O)NCC(=O)N[C@@H](CC(=O)O)C(=O)N[C@@H](CCCN=C(N)N)C(=O)NCC(=O)N[C@@H](CC(=O)O)C(N)=O)c3ccc4ccccc4c3C2(C)C)=[N+](CC(=O)N[C@@H](CCCN=C(N)N)C(=O)NCC(=O)N[C@@H](CC(=O)O)C(=O)N[C@@H](CCCN=C(N)N)C(=O)NCC(=O)N[C@@H](CC(=O)O)C(N)=O)c2ccc3ccccc3c21 | 104 |

More lines, now with the values ahead:

| IC50 [nM] | SMILES |
| --- | --- |
| 63.9 | CC1(C)C(/C=C/C=C/C=C/C=C2/N(CCC(=O)NCCCC[C@@H]3NC(=O)[C@@H](Cc4ccccc4)NC(=O)[C@H](CC(=O)O)NC(=O)CNC(=O)[C@H](CCCNC(=N)N)NC3=O)c3ccc4ccccc4c3C2(C)C)=[N+](CCC(=O)O)c2ccc3ccccc3c21 |
| 730 | CC1(C)C(/C=C/C=C/C=C/C=C2/N(CCC(=O)O)c3ccc4ccccc4c3C2(C)C)=[N+](CC(=O)N[C@@H](CCCN=C(N)N)C(=O)NCC(=O)N[C@@H](CC(=O)O)C(=O)N[C@@H](CCCN=C(N)N)C(=O)NCC(=O)N[C@@H](CC(=O)O)C(N)=O)c2ccc3ccccc3c21 |
| 481 | CC1(C)C(/C=C/C=C/C=C/C=C2/N(CCC(=O)O)c3ccc4ccccc4c3C2(C)C)=[N+](CC(=O)N[C@@H](CCCN=C(N)N)C(=O)NCC(=O)N[C@@H](CC(=O)O)C(=O)N[C@@H](CCCN=C(N)N)C(=O)NCC(=O)N[C@@H](CC(=O)O)C(=O)N[C@@H](CCCN=C(N)N)C(=O)NCC(=O)N[C@@H](CC(=O)O)C(N)=O)c2ccc3ccccc3c21 (X3-RGDRGDRGD-NH2) |
